Entries after “also recorded” stand apart in the source; their conditions may differ.
Legend:
[1] = system: spontaneously hypertensive (SHR) rats; assay: Blood pressure, heart rate and breathing rate of anaesthetised SHR rats; assay type: in vivo, rat
Method: (§1) The catheter was inserted into the right jugular vein of male wistar rats or male spontaneously hypertensive (SHR) rats so as to reach the right atrium. Anesthesia (ZOLELIT, VIRBAC, 40 mg/kg to leg) and Xylazine 2%. AP39 solutions were prepared in 4 μl DMSO then mixed with 100 μl Krebs solution and immediately applied for 10 sec. (FIGS. 20, 21 and 22).
(§2) Blood pressure, heart rate and breathing rate were all measured at the same time, in accordance with Ling et al., 2008 Circulation 117 2351-2360.

HMEC [2] = assay: Cell death induced by inhibitors of endogenous H2S synthesis (AOAA, PAG); assay type: cell-based, human; conditions: FIGS. 5-7, p<0.001
From the text: In the data shown in FIGS. 5 to 7, ###=p<0.001 compared to the control; ***=p<0.001 compared to inhibitors.

HMEC [3] = assay: Mitochondrial oxidative stress measurements (MitoSox Red); assay type: cell-based, human; conditions: for mitochondrial superoxide formation induced by 4-HNE (MitoSOX red): 4-HNE 10 μM; for mitochondrial superoxide formation induced by H2O2 (MitoSOX red): H2O2 50 μM, FIG. 17
Method: HMEC were incubated with H2S donor compounds for 5 hrs then the oxidants H2O2, SIN-1 or […] added for 2 hrs. We used a mitochondria-selective oxidant probe MitoSox Red (final concentration, 5 μM) to detect mitochondria-derived oxidant species by fluorescence using a Gemini M2e microplate reader (excitation wavelength 510 nm, emission wavelength, 580 nm). The method was performed in accordance with the method described by M. Whiteman et al (Meths. Mol. Biol., 2008, 476, 29-50) and R. A. Quintanilla et al (J Biol Chem., 2008, 284, 18754-18766).

[4] = system: Human brain microvascular endothelial cells (HMEC); assay: Prevention of cell death induced by oxidants (SIN-1, H2O2, 4-HNE), Alamar Blue; assay type: cell-based
[5] = system: chloride channels derived from rat heart sarcoplasmic reticulum; assay: Single channel properties of chloride channels in bilayer lipid membrane; assay type: biochemical
Method: Sarcoplasmic reticulum (SR) vesicles, isolated from rat heart, were fused into bilayer lipid membrane separating the cis and trans chambers, and electrical current through the single chloride channel was measured. […] The single channel parameters: Open probability, current-voltage relationship, reversal potential, mean open and close time and single current amplitude were evaluated (FIGS. 24-28).

HMEC [6] = assay: Mitochondrial membrane potential (ΔΨm), tetramethylrhodamine methyl ester; assay type: cell-based, human; conditions: H2O2, SIN-1 or 4-HNE, FIG. 13
Method: HMEC were incubated with H2S donor compounds for 5 hrs followed by the addition of oxidants SIN-1 (500 μM), H2O2 (50 μM) or […] (10 μM) for 24 hrs. After this time the mitochondria-specific potentiometric dye tetramethylrhodamine methyl ester (200 nM) was added and fluorescence was determined using a Gemini M2e microplate reader (excitation wavelength 548 nm, emission wavelength 573 nm). The method was performed in accordance with the method described by M. Whiteman et al (FASEB J, 2004, 18, 1395-1397).

[7] = target: T1, CAv3.1 T-type calcium channels (Homo sapiens, UniProt O43497); assay: T-type calcium channel CAv3.1 whole cell patch-clamp in HEK 293 cells; assay type: cell-based; conditions: HEK293 cells, concentration and time-dependent, holding potential −100 mV, FIGS. 29-31
T1 construct: expressed in transfected cells; host or cells: HEK 293 cells, permanently transfected
T1 sequence (O43497 whole entry): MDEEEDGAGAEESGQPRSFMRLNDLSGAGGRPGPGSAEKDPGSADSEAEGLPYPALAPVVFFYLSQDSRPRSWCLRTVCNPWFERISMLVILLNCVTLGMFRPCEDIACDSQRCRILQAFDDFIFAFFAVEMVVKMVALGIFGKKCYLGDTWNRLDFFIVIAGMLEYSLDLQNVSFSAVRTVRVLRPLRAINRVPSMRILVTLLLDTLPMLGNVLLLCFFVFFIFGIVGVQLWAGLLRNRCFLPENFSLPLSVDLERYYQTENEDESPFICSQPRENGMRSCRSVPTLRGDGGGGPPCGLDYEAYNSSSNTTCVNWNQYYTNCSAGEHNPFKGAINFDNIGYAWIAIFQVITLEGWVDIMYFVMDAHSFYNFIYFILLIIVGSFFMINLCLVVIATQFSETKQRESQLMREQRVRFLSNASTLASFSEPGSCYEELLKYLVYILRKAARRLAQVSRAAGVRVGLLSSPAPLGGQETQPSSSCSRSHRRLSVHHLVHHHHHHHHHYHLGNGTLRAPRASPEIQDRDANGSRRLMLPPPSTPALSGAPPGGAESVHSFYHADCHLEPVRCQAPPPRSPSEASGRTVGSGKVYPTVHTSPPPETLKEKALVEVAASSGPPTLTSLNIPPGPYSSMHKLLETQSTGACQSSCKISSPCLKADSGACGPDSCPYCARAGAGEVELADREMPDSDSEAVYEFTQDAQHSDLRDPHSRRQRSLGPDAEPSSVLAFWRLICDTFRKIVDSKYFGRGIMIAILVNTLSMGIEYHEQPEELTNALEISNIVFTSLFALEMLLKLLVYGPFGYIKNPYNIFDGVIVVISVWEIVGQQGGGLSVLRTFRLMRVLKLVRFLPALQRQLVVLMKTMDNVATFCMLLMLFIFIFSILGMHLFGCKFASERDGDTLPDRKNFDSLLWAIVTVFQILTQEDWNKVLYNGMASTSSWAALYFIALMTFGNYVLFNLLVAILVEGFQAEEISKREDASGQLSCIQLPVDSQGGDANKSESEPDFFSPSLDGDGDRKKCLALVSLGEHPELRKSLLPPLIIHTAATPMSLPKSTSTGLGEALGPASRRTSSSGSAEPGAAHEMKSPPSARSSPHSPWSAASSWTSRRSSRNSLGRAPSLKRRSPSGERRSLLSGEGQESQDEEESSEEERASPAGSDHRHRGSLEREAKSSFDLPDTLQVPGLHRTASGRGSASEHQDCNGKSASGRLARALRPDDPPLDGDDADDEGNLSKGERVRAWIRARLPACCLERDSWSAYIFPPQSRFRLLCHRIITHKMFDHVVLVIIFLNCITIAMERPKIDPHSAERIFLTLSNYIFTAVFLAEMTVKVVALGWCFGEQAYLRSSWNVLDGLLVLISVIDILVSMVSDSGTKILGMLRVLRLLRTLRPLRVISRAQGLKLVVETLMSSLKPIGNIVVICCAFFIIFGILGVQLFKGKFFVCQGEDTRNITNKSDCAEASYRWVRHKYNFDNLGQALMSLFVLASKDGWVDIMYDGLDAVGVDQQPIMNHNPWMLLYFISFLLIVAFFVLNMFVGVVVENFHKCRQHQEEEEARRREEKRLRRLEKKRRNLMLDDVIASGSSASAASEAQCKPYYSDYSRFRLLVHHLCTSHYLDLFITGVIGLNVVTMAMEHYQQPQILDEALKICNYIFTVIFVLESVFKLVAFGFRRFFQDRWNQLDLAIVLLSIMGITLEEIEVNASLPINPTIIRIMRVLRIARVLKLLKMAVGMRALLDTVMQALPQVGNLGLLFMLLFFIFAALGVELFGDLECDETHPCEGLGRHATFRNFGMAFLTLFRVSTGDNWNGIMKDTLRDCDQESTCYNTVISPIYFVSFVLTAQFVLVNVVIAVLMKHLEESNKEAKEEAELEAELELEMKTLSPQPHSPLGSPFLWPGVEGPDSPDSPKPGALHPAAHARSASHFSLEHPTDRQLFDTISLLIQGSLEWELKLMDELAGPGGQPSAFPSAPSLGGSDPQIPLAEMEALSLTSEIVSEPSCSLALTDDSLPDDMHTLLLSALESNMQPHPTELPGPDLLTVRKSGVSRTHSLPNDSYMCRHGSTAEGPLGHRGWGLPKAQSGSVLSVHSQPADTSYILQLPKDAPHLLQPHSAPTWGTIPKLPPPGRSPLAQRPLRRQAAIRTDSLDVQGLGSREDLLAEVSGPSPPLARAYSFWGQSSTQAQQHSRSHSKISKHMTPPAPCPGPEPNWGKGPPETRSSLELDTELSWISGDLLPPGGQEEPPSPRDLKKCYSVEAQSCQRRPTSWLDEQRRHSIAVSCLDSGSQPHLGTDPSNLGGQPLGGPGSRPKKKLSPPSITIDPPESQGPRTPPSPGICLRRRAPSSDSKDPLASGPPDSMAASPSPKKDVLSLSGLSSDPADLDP
Method: CAv3.1 calcium channels were permanently transfected in human embryonic kidney (HEK 293) cells and the calcium currents were measured by a patch-clamp method in the whole cell configuration, from a holding potential −100 mV.
The effect of four different concentrations of AP39 on the current through a Cav3.1 channel was tested (FIGS. 29-31).

peroxiredoxin 3 (Prx3) = assay: Western blot of mitochondrial peroxiredoxin 3 oxidation in THP-1 cells; assay type: cell-based, human
Method: Human THP-1 (monocytic) cells were exposed to an oxidative stress inducing agent (hydrogen peroxide; H2O2, 25 μM) in the presence or absence of the mitochondria-targeted H2S donor AP39.
In the experiment resulting in FIG. 32, the human THP-1 (monocytic) cells were exposed to 25 μM H2O2 for 4 hours in the absence or presence of different concentrations of AP39 (given in μM).
In the experiment resulting in FIG. 33, the human THP-1 (monocytic) cells were exposed to different concentrations of AP39 (given in μM) for 4 hours followed by the addition of 25 μM H2O2 for 1 minute.
In both experiments, after these time periods the levels of native mitochondrial matrix protein peroxiredoxin 3 (Prx3) (dimer, molecular weight 37 kDa) and over-oxidised Prx3 (monomer, molecular weight 25 kDa) were determined by standard western blotting procedures (M Whiteman et al (FASEB J, 2004, 18, 1395-1397) (FIGS. 32 and 33).

inflammasome [8] = assay: Inhibition of inflammasome activity once inflammasome is activated, IL-1β ELISA in THP-1 cells; assay type: cell-based, human; conditions: LPS 24 hrs, then ATP and AP39 24 hrs, FIG. 36
Method: Human THP-1 cells were cultured in RPMI medium and exposed to bacterial endotoxin (lipopolysaccharide; LPS) (1 μg/ml) for 24 hrs, followed by ATP (5 mM) and AP39 for 24 hrs. After this time cell culture media was collected and inflammasome activity determined by measuring IL-1β levels in the culture media by commercial ELISA (Human IL-1 beta ELISA Ready-SET-Go, eBioscience) (FIG. 36). Data are mean+/−standard deviation (n=3).

[9] = system: adrenaline-precontracted rat aorta; assay: Relaxation of adrenaline precontracted rat aortic rings; conditions: AP39 1-5 μM, 200 nmol/l adrenaline, FIG. 23 A-C
Method: (§3) The rings of thoracic aorta (approx. 3-4-mm diameter) or mesenteric artery were prepared from male Wistar rats and were mounted for recording of isometric tension changes in pneumoxid-oxygenated (95% O2:CO2, 37° C.) Krebs-bicarbonate solution as described in Ling et al., 2008 Circulation 117 […]. The aortic ring was pre-contracted with 200 nmol/l adrenaline and the effect of AP39 was evaluated (FIG. 23).

inflammasome [10] = assay: Inhibition of inflammasome activation (LPS/ATP), IL-1β ELISA in THP-1 cells; assay type: cell-based, human; conditions: AP39 with LPS 1 μg/ml 24 hrs, then ATP 5 mM 24 hrs, FIG. 35
Method: Human THP-1 cells were cultured in RPMI medium and incubated with AP39 and bacterial endotoxin (lipopolysaccharide; LPS) (1 μg/ml) for 24 hrs, followed by ATP (5 mM) for an additional 24 hrs. After this time cell culture media was collected and inflammasome activation determined by measuring […] levels in the culture media by commercial ELISA (Human IL-1 beta ELISA Ready-SET-Go, eBioscience) (FIG. 35). Data are mean+/−standard deviation (n=3).

[11] = system: transcription factor Nrf2; assay: Nrf2 activation, luciferase reporter in AREc32 cells; assay type: cell-based, human; conditions: FIG. 34
Method: Nrf2 activation was studied in AREc32 cells. This stable cell line is derived from MCF-7 cells transfected with a construct containing eight copies of the rat glutathione-S-transferase-A2 Antioxidant Response […] Element (ARE) and the SV40 promoter sequence upstream of a firefly luciferase reporter gene (Wang, X. J. et al., 2006, Cancer Res, 66, 10983-94). […] After 4 h the treatments were removed and the cells were treated with sulforaphane (12.5 μM), an Nrf2-activator and positive control, for 24 hrs. Nrf-2 activation (luciferase activity) was then assessed by luminescence with a BMG labtech Omega microplate reader (FIG. 34). Data are expressed as fold induction of luciferase activity normalised to cell biomass (sulforhodamine B).

[12] = system: anaesthetised Wistar rats; assay: Blood pressure, heart rate and breathing rate of anaesthetised Wistar rats; assay type: in vivo, rat; conditions: for blood pressure / breathing rate / heart rate: anaesthetised Wistar rats
Method: The mean arterial blood pressure (MAP) of anaesthetised Wistar rats was measured by a pressure transducer in the carotid artery. In ex vivo experiments, effects of AP39 were studied on noradrenaline precontracted rat aortic rings (see below). The single channel properties of intracellular chloride channels from rat heart were studied using the bilayer lipid membrane method (see below).
as §1, §2

mesenteric arteries = assay: Relaxation of adrenaline precontracted rat mesenteric arteries; conditions: AP39 1-5 μM, FIG. 23 D
Method: as §3

HMEC [13] = assay: Intracellular oxidative stress measurements (DCFDA assay); assay type: cell-based, human; conditions: for 4-HNE-derived intracellular oxidant species (DCFDA assay): FIGS. 14 and 15; for time dependent increase in intracellular oxidative stress (DCFDA assay): FIG. 15
Method: HMEC were incubated with H2S donor compounds for 5 hrs then H2O2, […] or SIN-1 were added for 2 hrs. Intracellular oxidative stress was then assessed using dichlorofluorescein diacetate (added at a final concentration of 10 μM) and fluorescence detected using a Gemini M2e microplate reader at 37° C. (excitation wavelength, 488 nm, emission wavelength 525 nm). The method was performed in accordance with the method described by M. Whiteman et al (Meths. Mol. Biol., 2008, 476, 29-50).

cancer = conditions: in vitro and in vivo; cited from earlier work
[14] = 1.6 μM/kg and 2.7 μM/kg AP39 injected, FIG. 20
[15] = Wistar or SHR rats, Na2S, summary statement, dose not given

O=C(CCCCCCCCC[P+](c1ccccc1)(c1ccccc1)c1ccccc1)Oc1ccc(-c2cc(=S)ss2)cc1.[Br-] [AP39]
blood pressure ([1]; SHR rats, 1.5 μM/kg AP39 injected, FIG. 21): Sustained blood pressure lowering effects
heart rate ([1]; hypertensive (SHR) rats, AP39, summary statement): reducing
AOAA, PAG and AOAA/PAG induced cell death (HMEC [2]; AP39 100 nM): significantly inhibited
mitochondrial superoxide formation induced by 4-HNE (MitoSOX red) (HMEC [3]; AP39 0.1 μM, FIGS. 16 and 18): significantly reduced
lower concentration than GYY4137 for reduction of mitochondrial superoxide (HMEC [3]; AP39 0.1 μM versus GYY4137 100 μM): 1,000 fold
mitochondrial superoxide formation induced by H2O2 (MitoSOX red) (HMEC [3]; AP39 0.1 μM): reduced
H2O2-induced cytotoxicity [4]: inhibited
SIN-1 and 4-HNE induced cell death [4]: significantly inhibited
cell death induced by 4-HNE [4]: significantly inhibited
cell death induced by SIN-1 [4]: significantly inhibited
concentration mediating inhibition of cell death, mitochondrial dysfunction and oxidative stress [4]: 50 to 200 nM
mean open time of the channel ([5]; AP39 20 μmol/l, 0 mV, control 11 ms, FIG. 27): 33 ms
amplitude of the electrical current through the single chloride channels ([5]; AP39 20 and 40 μM, 0 mV, FIGS. 24 and 25): increased
channel open probability ([5]; FIGS. 24-28): increased
mean chloride channel open time, concentration dependence ([5]; concentration dependent manner, FIG. 28): increased
conductance of chloride channels ([5]; control channel 125 pS, FIG. 26): increased
Cl−/K+ channel permeability ratio ([5]; control ratio 9.6, FIG. 26): did not influence
channel reversal potential ([5]; with AP39, control ~−31 mV, FIG. 26): ~−31 mV
oxidant-induced mitochondrial membrane potential (Δψm) collapse (HMEC [6]; AP39 100 nM): inhibition
concentration of AP39 inhibiting CAv3.1 T-type calcium channels [7]: > 300 nM
Prx3 oxidation by H2O2 (peroxiredoxin 3 (Prx3); 5 μM AP39 for 4 hours then 25 μM H2O2 for 1 minute, FIG. 33): reduced
levels of the over-oxidised monomeric form of Prx3 (peroxiredoxin 3 (Prx3); 25 μM H2O2, increasing concentrations of AP39, FIGS. 32 and 33): reduced
inflammasome activity after activation by LPS/ATP (IL-1β levels) (inflammasome [8]): inhibited
vasodilatory effect on adrenaline-precontracted rat aorta [9]: vasodilatory effects
IL-1β levels in the cell culture media (inflammasome activation) (inflammasome [10]): reduced
Nrf2 transcription factor activation (luciferase activity) ([11]; AREc32 cells, AP39 6.25 μM pre-treatment 4 h): activates
potency at inducing Nrf2 activation compared with GYY4137 ([11]; equimolar concentrations (6.25 μM)): more potent
blood pressure [12, 14]: reduced
breathing rate [12, 14]: transiently increased
heart rate [12, 14]: reduced
blood pressure ([12]; AP39 4 μM/kg, FIG. 22): sustained blood pressure (A) and heart rate (B) lowering effects
heart rate ([12]; AP39 4 μM/kg, FIG. 22): sustained blood pressure (A) and heart rate (B) lowering effects
effectiveness relative to Na2S at influencing blood pressure, heart rate and breathing rate ([12]; rats, FIGS. 20 to 22): 10-50 times
vasodilatory effect on adrenaline-precontracted mesenteric arteries (mesenteric arteries): vasodilatory effects
4-HNE-derived intracellular oxidant species (DCFDA assay) (HMEC [13]; AP39 100 nM): significantly reduced; also recorded: significantly decreased
time dependent increase in intracellular oxidative stress (DCFDA assay) (HMEC [13]; pretreatment with AP39 100 nM): reduced

[Na+].[Na+].[S-2] [Na2S, reference compound]
blood pressure [1, 15]: did not reduce blood pressure
heart rate [1, 15]: did not decrease heart rate
blood pressure ([12]; 3 μM/kg Na2S injected, FIG. 20): no effect; also recorded: not observed
breathing rate ([12]; 3 μM/kg Na2S injected, FIG. 20): no effect
heart rate ([12]; 3 μM/kg Na2S injected, FIG. 20): no effect; also recorded: not observed

morpholin-4-ium 4-methoxyphenyl(morpholino) phosphinodithioate [GYY4137, reference compound]
AOAA, PAG and AOAA/PAG induced cell death (HMEC [2]; GYY4137 100 μM): significantly inhibited
mitochondrial superoxide formation induced by 4-HNE (MitoSOX red) (HMEC [3]; GYY4137 100 μM, FIG. 16): reduced
mitochondrial superoxide formation induced by H2O2 (MitoSOX red) (HMEC [3]; GYY4137 100 μM): reduced
oxidant-induced mitochondrial membrane potential (Δψm) collapse (HMEC [6]; GYY4137 100 μM): inhibition
anti-cancer effects (cancer): anti-cancer effects
4-HNE-derived intracellular oxidant species (DCFDA assay) (HMEC [13]; GYY4137 100 μM): significantly reduced; also recorded: significantly decreased
time dependent increase in intracellular oxidative stress (DCFDA assay) (HMEC [13]; pretreatment with GYY4137 100 μM): reduced

— patent publication US10058100B2, “Hydrogen sulfide releasing compounds and their use” (THE UNIVERSITY OF EXETER, priority 2011, dated 2018)
